From the NIST ThermoML archive (doi:10.1021/je900864n)

Assays:
[1] = refractive index (other wavelength) (dimensionless); wn = mass fraction of the nth substance listed; conditions: 101 kPa, Liquid, Wavelength=632.8 nm, Standard Abbe refractometry
[2] = 101.33 kPa, Liquid
[3] = refractive index (other wavelength) (dimensionless); conditions: 101 kPa, Liquid, Standard Abbe refractometry
[4] = refractive index (Na D-line) (dimensionless); conditions: 101.33 kPa, Liquid, Standard Abbe refractometry

OCCCO [propan-1,3-diol] + CCCCn1cc[n+](C)c1.F[B-](F)(F)F
[1]
Conditions | refractive index
286.8 K, w2 = 0.698 | 1.424
286.81 K, w2 = 0.796 | 1.4233
287.24 K, w2 = 0.901 | 1.4228
288.87 K, w2 = 0.796 | 1.4228
288.88 K, w2 = 0.901 | 1.4224
289.37 K, w2 = 0.698 | 1.4234
290.78 K, w2 = 0.602 | 1.4239
290.86 K, w2 = 0.796 | 1.4223
291 K, w2 = 0.901 | 1.4219
291.2 K, w2 = 0.698 | 1.4229
292.89 K, w2 = 0.796 | 1.4218
292.95 K, w2 = 0.901 | 1.4214
293.29 K, w2 = 0.602 | 1.4232
293.3 K, w2 = 0.698 | 1.4223
294.94 K, w2 = 0.698 | 1.4219
294.99 K, w2 = 0.901 | 1.4209
295.08 K, w2 = 0.602 | 1.4227
295.86 K, w2 = 0.796 | 1.4211
296.02 K, w2 = 0.513 | 1.4235
296.98 K, w2 = 0.602 | 1.4222
297 K, w2 = 0.901 | 1.4204
297.16 K, w2 = 0.0947 | 1.4328
297.94 K, w2 = 0.698 | 1.4211
297.96 K, w2 = 0.796 | 1.4206
298.14 K, w2 = 0.513 | 1.4229
298.49 K, w2 = 0.0947 | 1.4325
298.98 K, w2 = 0.602 | 1.4217
299.51 K, w2 = 0.384 | 1.4245
299.54 K, w2 = 0.299 | 1.4263
299.6 K, w2 = 0.194 | 1.4289
300 K, w2 = 0.0947 | 1.4321
300 K, w2 = 0.513 | 1.4224
300 K, w2 = 0.901 | 1.4196
301.08 K, w2 = 0.194 | 1.4285
301.1 K, w2 = 0.602 | 1.4211
301.22 K, w2 = 0.384 | 1.424
301.4 K, w2 = 0.299 | 1.4258
301.52 K, w2 = 0.0947 | 1.4317
302.02 K, w2 = 0.513 | 1.4218
302.17 K, w2 = 0.194 | 1.4282
303.06 K, w2 = 0.0947 | 1.4313
303.53 K, w2 = 0.384 | 1.4234
303.55 K, w2 = 0.299 | 1.4252
304.01 K, w2 = 0.513 | 1.4212
304.13 K, w2 = 0.194 | 1.4276
304.93 K, w2 = 0.513 | 1.4209
305.12 K, w2 = 0.0947 | 1.4308
305.28 K, w2 = 0.384 | 1.4229
305.3 K, w2 = 0.299 | 1.4247
305.51 K, w2 = 0.194 | 1.4272
307.32 K, w2 = 0.194 | 1.4267
307.43 K, w2 = 0.299 | 1.4241
307.44 K, w2 = 0.384 | 1.4223
308.96 K, w2 = 0.384 | 1.4219
309.08 K, w2 = 0.299 | 1.4236

CCCCn1cc[n+](C)c1.F[B-](F)(F)F [1-butyl-3-methylimidazolium tetrafluoroborate]
[2]
Conditions | mass density [kg/m3]
293.15 K | 1210.05
298.15 K | 1206.32
303.15 K | 1202.59
308.15 K | 1198.97
313.15 K | 1195.24

[3], Wavelength=632.8 nm
Conditions | refractive index
286.91 K | 1.4228
288.89 K | 1.4223
290.92 K | 1.4218
293.04 K | 1.4212
295.03 K | 1.4207
297.04 K | 1.4202
299.02 K | 1.4197
304.12 K | 1.4184
309.02 K | 1.4171
314.35 K | 1.4157
318.92 K | 1.4146

OCCCCO [1,4-butanediol]
Conditions | mass density [kg/m3] | refractive index
[2], 293.15 K | 1016.37 | –
[2], 298.15 K | 1013.04 | –
[2], 303.15 K | 1009.96 | –
[2], 308.15 K | 1006.75 | –
[2], 313.15 K | 1003.55 | –
[2], 318.15 K | 1000.72 | –
[4], 294.23 K | – | 1.4447
[4], 297.67 K | – | 1.4437
[4], 300.86 K | – | 1.4428
[4], 303.23 K | – | 1.4422
[4], 306.21 K | – | 1.4414
[4], 309.13 K | – | 1.4406
[4], 313.69 K | – | 1.4393

OCCCCO [1,4-butanediol] + CCCCn1cc[n+](C)c1.F[B-](F)(F)F
[1]
Conditions | refractive index
296.24 K, w2 = 0.894 | 1.4221
298.19 K, w2 = 0.894 | 1.4216
300.13 K, w2 = 0.894 | 1.4211
301.24 K, w2 = 0.786 | 1.4216
302.15 K, w2 = 0.894 | 1.4206
303.16 K, w2 = 0.786 | 1.4211
303.25 K, w2 = 0.686 | 1.4223
304.14 K, w2 = 0.894 | 1.42
304.22 K, w2 = 0.579 | 1.4237
304.24 K, w2 = 0.786 | 1.4208
305.26 K, w2 = 0.686 | 1.4218
306.24 K, w2 = 0.579 | 1.4231
306.25 K, w2 = 0.094 | 1.4367
306.69 K, w2 = 0.894 | 1.4194
306.7 K, w2 = 0.484 | 1.4247
307.2 K, w2 = 0.094 | 1.4364
307.21 K, w2 = 0.786 | 1.42
307.29 K, w2 = 0.686 | 1.4212
308.22 K, w2 = 0.484 | 1.4243
308.24 K, w2 = 0.094 | 1.4361
308.27 K, w2 = 0.579 | 1.4225
309.2 K, w2 = 0.686 | 1.4207
309.23 K, w2 = 0.094 | 1.4358
309.24 K, w2 = 0.786 | 1.4195
309.26 K, w2 = 0.381 | 1.4264
309.55 K, w2 = 0.19 | 1.4322
309.73 K, w2 = 0.484 | 1.4238
309.88 K, w2 = 0.286 | 1.4289
310.17 K, w2 = 0.094 | 1.4355
310.22 K, w2 = 0.579 | 1.422
310.64 K, w2 = 0.381 | 1.426
311.22 K, w2 = 0.286 | 1.4285
311.22 K, w2 = 0.686 | 1.4202
311.25 K, w2 = 0.19 | 1.4317
311.33 K, w2 = 0.484 | 1.4234
311.85 K, w2 = 0.786 | 1.4188
312.19 K, w2 = 0.579 | 1.4214
312.27 K, w2 = 0.094 | 1.4349
312.31 K, w2 = 0.381 | 1.4255
312.78 K, w2 = 0.19 | 1.4312
312.88 K, w2 = 0.484 | 1.4229
313 K, w2 = 0.286 | 1.4279
313.28 K, w2 = 0.686 | 1.4196
313.79 K, w2 = 0.381 | 1.4251
314.29 K, w2 = 0.19 | 1.4308
314.29 K, w2 = 0.579 | 1.4208
314.31 K, w2 = 0.484 | 1.4225
314.32 K, w2 = 0.094 | 1.4343
314.39 K, w2 = 0.286 | 1.4275
315.65 K, w2 = 0.381 | 1.4246
315.79 K, w2 = 0.286 | 1.4271
316.13 K, w2 = 0.19 | 1.4302
317.3 K, w2 = 0.19 | 1.4299
317.35 K, w2 = 0.286 | 1.4266
317.38 K, w2 = 0.381 | 1.4241

OCCCO [propan-1,3-diol]
[2]
Conditions | mass density [kg/m3]
293.15 K | 1053.48
298.15 K | 1050.28
303.15 K | 1047.26
308.15 K | 1044.11
313.15 K | 1040.94

[3], Wavelength=63.28 nm
Conditions | refractive index
287.46 K | 1.4396
288.88 K | 1.4392
290.94 K | 1.4387
293.1 K | 1.4381
295.16 K | 1.4375
297.02 K | 1.437
299.09 K | 1.4365
301.21 K | 1.4359
